The values that follow come from ChEMBL document CHEMBL1201862, “PubChem BioAssay data set” (2004).

Among the test systems are DMS-273; HOP-18; RXF 631; KM-20L2; XF498; LXFL 529; SNB-78; DLD-1; Hs-578T.
Holding throughout (test): growth of human tumour cells (NCI), 48 h

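Protocol summary: plate cells (96-well), add compound at 5 concentrations, incubate 48 h, interpolate endpoints linearly. At the GI50, growth is halved.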 Active and inactive are the calls of the source. No stated cut-off is given here; in the data, active = GI50 up to about 1.1 µM and inactive = higher. Bounds are passed on as bounds.

With `CC(=O)Nc1ccccc1Sc1ccccc1`, the GI50 in the experiment with DMS-273, in the experiment with HOP-18, in the experiment with RXF 631, in the experiment with KM-20L2, in the experiment on XF498 and in the experiment with LXFL 529 was > 100 µM (inactive) in each case. The GI50 with SNB-78 was > 100 µM (inactive).
In the case of `CC(=O)OC1=CC2(OC(C)=O)CC(C)(C)C1C1C(=O)C=CC(=O)C12` (stereo unspecified), the GI50 in the experiment on DMS-273, in the experiment on RXF 631, in the experiment on KM-20L2, in the experiment on XF498, in the experiment on LXFL 529 and with DLD-1 was > 100 µM (inactive) each time. Further, in the experiment on SNB-78, the GI50 is > 100 µM (inactive).
`CCCCCN(CCCCC)C(=O)[C@@H](CCC(=O)OCc1ccccc1)NC(=O)c1cc2ccccc2[nH]1`: the GI50 in the experiment with DMS-273 is > 100 µM (inactive); in the experiment on HOP-18 it was > 100 µM (inactive); in the experiment with RXF 631 it was > 100 µM (inactive); with KM-20L2 it was > 100 µM (inactive); in the experiment on LXFL 529, 8.85 µM (inactive); in the experiment with DLD-1 it was > 100 µM (inactive). Besides, the GI50 with SNB-78 was > 100 µM (inactive).
On to `Cc1nc2ccccc2c(=O)n1/N=C(\N=N\c1cc(Cl)ccc1Cl)c1ccccc1`, for which the GI50 in the experiment with DMS-273 is 43.3 µM (inactive); in the experiment on HOP-18, 14.3 µM (inactive); in the experiment with RXF 631, > 10 µM (inactive); in the experiment with KM-20L2, 0.412 µM (active); in the experiment with Hs-578T it was 74 µM (inactive); in the experiment with XF498 it was 61.2 µM (inactive). Besides, the GI50 in the experiment with LXFL 529 is 36.5 µM (inactive); in the experiment with DLD-1, 45.6 µM (inactive).
`O=C1O[C@@H](c2ccccc2)C[C@H]1CN1CCOCC1`: the GI50 in the experiment with RXF 631 is > 100 µM (inactive); with KM-20L2, > 100 µM (inactive); in the experiment with XF498, 81.8 µM (inactive); with LXFL 529 it was > 100 µM (inactive); in the experiment on DLD-1, > 100 µM (inactive); in the experiment with SNB-78, > 100 µM (inactive).
Take `CC(C)C(=O)Nc1nc2c(ncn2C2OC(CO)C(O)C2O)c(=O)[nH]1` (stereo unspecified): the GI50 in the experiment on DMS-273, in the experiment on HOP-18, in the experiment on RXF 631, in the experiment with KM-20L2, in the experiment with XF498 and in the experiment on LXFL 529 was > 100 µM (inactive) in each case. Besides, the GI50 with DLD-1 and in the experiment on SNB-78 was > 100 µM (inactive) each time.
Consider `N#CCCCCCOCCOCCOCCOCCOCCCCCC#N`, for which the GI50 in the experiment on DMS-273, with HOP-18, with RXF 631, with KM-20L2, in the experiment with LXFL 529 and with DLD-1 was > 100 µM (inactive) each time.
As to `CSc1nc(-c2ccccc2)c2c(n1)-c1ccccc1CC2`, the GI50 is > 100 µM (inactive) in the experiment with HOP-18; > 100 µM (inactive) in the experiment on RXF 631; 78.5 µM (inactive) in the experiment on KM-20L2; > 100 µM (inactive) with XF498; > 100 µM (inactive) in the experiment on LXFL 529; > 100 µM (inactive) with DLD-1.
Consider `CN(C)c1ccc2nc3c(ccc4ccccc43)[o+]c2c1`, for which the GI50 in the experiment with DMS-273 is 17.9 µM (inactive); in the experiment on HOP-18 it was 10.1 µM (inactive); with RXF 631, 7.91 µM (inactive); with KM-20L2, 13.8 µM (inactive); in the experiment with XF498 it was 14.4 µM (inactive); with LXFL 529, 6.53 µM (inactive). For the same molecule, the GI50 in the experiment with DLD-1 was 5.51 µM (inactive); in the experiment on SNB-78, 14.6 µM (inactive).
With `O=[N+]([O-])c1nccn1CC(O)c1ccc(F)cc1` (stereo unspecified), the GI50 in the experiment on DMS-273, in the experiment with HOP-18, in the experiment with RXF 631, with KM-20L2, in the experiment with XF498 and with LXFL 529 was > 100 µM (inactive) in each case.
For `COc1cc2c(c(OC)c1OC)-c1ccc(SC)c(=O)cc1[C@@H](NC(=O)c1cccc([N+](=O)[O-])c1)CC2`, the GI50 is < 0.01 µM (active) with DMS-273; 0.0164 µM (active) with RXF 631; 0.0172 µM (active) in the experiment on KM-20L2; 0.0205 µM (active) with XF498; 0.0239 µM (active) in the experiment on LXFL 529; < 0.01 µM (active) with DLD-1. For the same molecule, the GI50 in the experiment on SNB-78 was 0.0243 µM (active).
Consider `C1CN1c1nc(N2CC2)nc(N2CC2)n1`, for which the GI50 was 1.31 µM (inactive) in the experiment with DMS-273; 17.5 µM (inactive) with HOP-18; 11.3 µM (inactive) with RXF 631; 15.1 µM (inactive) in the experiment with KM-20L2; 26.5 µM (inactive) in the experiment with Hs-578T; 4.89 µM (inactive) in the experiment with XF498. For the same molecule, the values for the GI50 with LXFL 529 and with DLD-1 were 13.9 µM (inactive) and 18.4 µM (inactive), respectively.
For the molecule `Cn1c(=O)nc2n(-c3cccc(Br)c3)c3ccccc3nc-2c1=O`, the GI50 in the experiment on DMS-273 is 3.1 µM (inactive); in the experiment on HOP-18, 5.9 µM (inactive); in the experiment on KM-20L2, 2.43 µM (inactive); in the experiment on XF498, 5.36 µM (inactive); in the experiment on LXFL 529, 6.1 µM (inactive); with DLD-1 it was 5.41 µM (inactive). In addition, the GI50 in the experiment on SNB-78 was 12.2 µM (inactive).
Turning to `CCN(CC)CCNc1ccc2nnn3c4ccc(OC)cc4c(=O)c1c23`, the GI50 with HOP-18 is 0.507 µM (active); in the experiment on RXF 631 it was 3.83 µM (inactive); in the experiment on KM-20L2, 5.27 µM (inactive); in the experiment on LXFL 529 it was 9.62 µM (inactive); in the experiment with DLD-1 it was 5.05 µM (inactive); in the experiment with SNB-78 it was 10.7 µM (inactive).
Regarding `O=NN(CCCl)C(=O)NCCCl` [CARMUSTINE], the GI50 is 74 µM (inactive) with DMS-273; 91.4 µM (inactive) with HOP-18; 80.2 µM (inactive) in the experiment with RXF 631; 94 µM (inactive) in the experiment on KM-20L2; 103 µM (inactive) in the experiment with Hs-578T; 68.1 µM (inactive) in the experiment with XF498. Further, the GI50 is 71.4 µM (inactive) with LXFL 529, 76.6 µM (inactive) in the experiment with DLD-1 and 88.9 µM (inactive) with SNB-78.
